pIC50: −log10 of the molar value.

These results are taken from ChEMBL document CHEMBL6078718, “F-CPI: A Multimodal Deep Learning Approach for Predicting Compound Bioactivity Changes Induced by Fluorine Substitution” (J Med Chem, 2025).

The target in this test is Replicase polyprotein 1ab (Severe acute respiratory syndrome coronavirus 2, UniProt P0DTD1). As to the kind of experiment: Inhibition of 6xHis-tagged SARS-CoV-2 3CLpro using DKE as substrate preincubated for 60 mins followed by substrate addition measured after 20 mins by fluorescence based assay.
For the molecule `CC(C)C[C@@H](C(=O)N1C[C@]2(C[C@H]1C#N)C(=O)Nc1ccccc12)N(C)C(=O)[C@H](C)NC(=O)C(C)(C)F`, the negative-log IC50 (pIC50) – broadly, the negative decadic logarithm of the IC50, by convention in mol/L – was 7.61.

`CN(C)CCOc1c(Cl)cc([C@H](NC(=O)CF)C(=O)N2C[C@H]3[C@@H]([C@H]2C(=O)N[C@H](C#N)C[C@@H]2CCNC2=O)C3(C)C)cc1Cl`: the pIC50 was 6.64.

Molecule `C[C@H](NC(=O)C(F)F)C(=O)N(C)[C@@H](CC1CC1)C(=O)N1C[C@]2(C[C@H]1C#N)C(=O)Nc1ccccc12` had a pIC50 of 7.67.

Consider `CC(=O)N[C@H](C(=O)N1C[C@H]2[C@@H]([C@H]1C(=O)N[C@H](C#N)C[C@@H]1CCNC1=O)C2(C)C)c1cc(Cl)c(OCCN(C)C)c(Cl)c1`, for which the negative-log IC50 (pIC50) is 4.55.

`C[C@H](NC(=O)C(F)(F)F)C(=O)N(C)[C@@H](CC1CC1)C(=O)N1C[C@]2(C[C@H]1C#N)C(=O)Nc1ccccc12` had a pIC50 of 7.59.

The molecule `CC(C)C[C@@H](C(=O)N1C[C@]2(C[C@H]1C#N)C(=O)Nc1ccccc12)N(C)C(=O)[C@H](C)NC(=O)C(C)C` showed a pIC50 of 7.53.
